In assay [1] the test system is HCV genotype 1a (H77 strain) replicon in HUH-7 cells. The assay is described as follows: HCV replicon luciferase reporter assay, genotype 1a. The format is cell-based. Particulars: HCV genotype 1a replicon luciferase, 3 days incubation. The method, boiled down: (§1)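 Replicon inhibition for both genotypes was measured as Renilla luciferase signal (EnduRen, 7.5 μM final, 2 h) after 3-day, 37° C exposure of replicon-bearing HUH-7 cells in 4% FCS DMEM, 0.5% DMSO. The 1b construct carries S1179I; the 1a H77 construct carries P1496L and S2204I. Twenty-point, 3-fold dilutions were fitted four-parametrically for EC50, and CC50 was taken from multiplexed Cell Titer-Blue.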
(In antiviral work, replicon cells carry a viral genome segment that copies itself.)

Assay [2] relates to HCV genotype 1b (Con1) replicon in HUH-7 cells. The assay is described as follows: HCV replicon luciferase reporter assay, genotype 1b. The format is cell-based. Particulars: HCV genotype 1b replicon luciferase, 3 days incubation. An outline of the steps: as §1
The mark [3] stands for this setting: Hepatitis C virus, Huh-7, 72 h, read-out: LE_1a (EC50, range).
Where [4] appears, read: Hepatitis C virus, Huh-7, 72 h, read-out: LE_1b (EC50, range).

Where two headings read alike, the source gives them in different places.

By EC50 is commonly meant the midpoint of the concentration-response curve. Consider `COc1cc2ccnc(O[C@@H]3C[C@H]4C(=O)N[C@]5(C(=O)NS(=O)(=O)C6(C)CC6)C[C@H]5/C=C\CC[C@@H](C)C[C@@H](C)[C@H](NC(=O)OC(C)(C)C(C)(F)F)C(=O)N4C3)c2cc1OC` [Compound 5377, 3,3-difluoro-2-methylbutan-2-yl((2R,6S,7R,9R,13aS,14aR,16aS,Z)-2-((6,7-dimethoxyisoquinolin-1-yl)oxy)-7,9-dimethyl-14a-(((1-methylcyclopropyl)sulfonyl)carbamoyl)-5,16-dioxo-1,2,3,5,6,7,8,9,10,11,13a,14,14a,15,16,16a-hexadecahydrocyclopropa[e]pyrrolo[1,2-a][1,4]diazacyclopentadecin-6-yl)carbamate], for which the EC50 in assay [1] (setting [3]) and in assay [2] (setting [4]) was 1.01 to 5 nM throughout.
`COc1cc2ccnc(O[C@@H]3C[C@H]4C(=O)N[C@]5(C(=O)NS(=O)(=O)C6(C)CC6)C[C@H]5/C=C\CC[C@@H](C)C[C@@H](C)[C@H](NC(=O)OC(C)(C)C)C(=O)N4C3)c2cc1OC` [Compound 5379, tert-butyl ((2R,6S,7R,9R,13aS,14aR,16aS,Z)-2-((6,7-dimethoxyisoquinolin-1-yl)oxy)-7,9-dimethyl-14a-(((1-methylcyclopropyl)sulfonyl)carbamoyl)-5,16-dioxo-1,2,3,5,6,7,8,9,10,11,13a,14,14a,15,16,16a-hexadecahydrocyclopropa[e]pyrrolo[1,2-a][1,4]diazacyclopentadecin-6-yl)carbamate]: the 50% effective concentration (EC50) in assay [1] (setting [3]) and in assay [2] (setting [4]) was 1.01 to 5 nM in each case.
With `COc1cc2ccnc(O[C@@H]3C[C@H]4C(=O)N[C@]5(C(=O)NS(=O)(=O)C6(CF)CC6)C[C@H]5/C=C\CC[C@@H](C)C[C@@H](C)[C@H](NC(=O)OC(C)(C)C(F)(F)F)C(=O)N4C3)c2cc1OC` [Compound 5381, 1,1,1-trifluoro-2-methylpropan-2-yl((2R,6S,7R,9R,13aS,14aR,16aS,Z)-2-((6,7-dimethoxyisoquinolin-1-yl)oxy)-14a-(((1-(fluoromethyl)cyclopropyl)sulfonyl)carbamoyl)-7,9-dimethyl-5,16-dioxo-1,2,3,5,6,7,8,9,10,11,13a,14,14a,15,16,16a-hexadecahydrocyclopropa[e]pyrrolo[1,2-a][1,4]diazacyclopentadecin-6-yl)carbamate], the EC50 in assay [1] (setting [3]) and in assay [2] (setting [4]) was 1.01 to 5 nM throughout.
As for `COc1cc2ccnc(O[C@@H]3C[C@H]4C(=O)N[C@]5(C(=O)NS(=O)(=O)C6(CF)CC6)C[C@H]5/C=C\CC[C@@H](C)C[C@@H](C)[C@H](NC(=O)OC(C)(C)C(F)(F)F)C(=O)N4C3)c2cc1OC` [Compound 5383, 1,1,1-trifluoro-2-methylpropan-2-yl((2R,6S,7R,9R,13aS,14aR,16aS,Z)-2-((6,7-dimethoxyisoquinolin-1-yl)oxy)-14a-(((1-(fluoromethyl)cyclopropyl)sulfonyl)carbamoyl)-7,9-dimethyl-5,16-dioxo-1,2,3,5,6,7,8,9,10,11,13a,14,14a,15,16,16a-hexadecahydrocyclopropa[e]pyrrolo[1,2-a][1,4]diazacyclopentadecin-6-yl)carbamate], the EC50 in assay [1] (read-out: LE_1a (EC50, range)) lay in the range of 5.01 to 35 nM; in assay [2] (read-out: LE_1b (EC50, range)), 1.01 to 5 nM.
For the molecule `COc1cc2ccnc(O[C@@H]3C[C@H]4C(=O)N[C@]5(C(=O)NS(=O)(=O)C6(CF)CC6)C[C@H]5/C=C\CC[C@@H](C)C[C@@H](C)[C@H](NC(=O)OC(C)(C)C)C(=O)N4C3)c2cc1OC` [Compound 5385, tert-butyl ((2R,6S,7R,9R,13aS,14aR,16aS,Z)-2-((6,7-dimethoxyisoquinolin-1-yl)oxy)-14a-(((1-(fluoromethyl)cyclopropyl)sulfonyl)carbamoyl)-7,9-dimethyl-5,16-dioxo-1,2,3,5,6,7,8,9,10,11,13a,14,14a,15,16,16a-hexadecahydrocyclopropa[e]pyrrolo[1,2-a][1,4]diazacyclopentadecin-6-yl)carbamate], the concentration for a half-maximal effect (EC50) lay in the range of 5.01 to 35 nM in assay [1] (setting [3]) and 1.01 to 5 nM in assay [2] (setting [4]).
For `COc1cc2ccnc(O[C@@H]3C[C@H]4C(=O)N[C@]5(C(=O)NS(=O)(=O)C6CC6)C[C@H]5/C=C\CC[C@@H](C)C[C@@H](C)[C@H](NC(=O)OC(C)(C)C(F)(F)F)C(=O)N4C3)c2cc1OC` [Compound 5387, 1,1,1-trifluoro-2-methylpropan-2-yl((2R,6S,7R,9R,13aS,14aR,16aS,Z)-14a-((cyclopropylsulfonyl)carbamoyl)-2-((6,7-dimethoxyisoquinolin-1-yl)oxy)-7,9-dimethyl-5,16-dioxo-1,2,3,5,6,7,8,9,10,11,13a,14,14a,15,16,16a-hexadecahydrocyclopropa[e]pyrrolo[1,2-a][1,4]diazacyclopentadecin-6-yl)carbamate], the EC50 in assay [1] (setting [3]) and in assay [2] (setting [4]) was 1.01 to 5 nM in each case.
In the case of `COc1cc2ccnc(O[C@@H]3C[C@H]4C(=O)N[C@]5(C(=O)NS(=O)(=O)C6CC6)C[C@H]5/C=C\CC[C@@H](C)C[C@@H](C)[C@H](NC(=O)OC(C)(C)C(C)(F)F)C(=O)N4C3)c2cc1OC` [Compound 5389, 3,3-difluoro-2-methylbutan-2-yl((2R,6S,7R,9R,13aS,14aR,16aS,Z)-14a-((cyclopropylsulfonyl)carbamoyl)-2-((6,7-dimethoxyisoquinolin-1-yl)oxy)-7,9-dimethyl-5,16-dioxo-1,2,3,5,6,7,8,9,10,11,13a,14,14a,15,16,16a-hexadecahydrocyclopropa[e]pyrrolo[1,2-a][1,4]diazacyclopentadecin-6-yl)carbamate], the half-maximal effective concentration (EC50) in assay [1] (setting [3]) and in assay [2] (setting [4]) was 1.01 to 5 nM each time.
As to `COc1cc2ccnc(O[C@@H]3C[C@H]4C(=O)N[C@]5(C(=O)NS(=O)(=O)C6CC6)C[C@H]5/C=C\CC[C@@H](C)C[C@@H](C)[C@H](NC(=O)OC(C)(C)C)C(=O)N4C3)c2cc1OC` [Compound 5391, tert-butyl ((2R,6S,7R,9R,13aS,14aR,16aS,Z)-14a-((cyclopropylsulfonyl)carbamoyl)-2-((6,7-dimethoxyisoquinolin-1-yl)oxy)-7,9-dimethyl-5,16-dioxo-1,2,3,5,6,7,8,9,10,11,13a,14,14a,15,16,16a-hexadecahydrocyclopropa[e]pyrrolo[1,2-a][1,4]diazacyclopentadecin-6-yl)carbamate], the EC50 in assay [1] (setting [3]) and in assay [2] (setting [4]) was 1.01 to 5 nM in each case.
`CCOc1cc2ccnc(O[C@@H]3C[C@H]4C(=O)N[C@]5(C(=O)NS(=O)(=O)C6(C)CC6)C[C@H]5/C=C\CC[C@@H](C)C[C@@H](C)[C@H](NC(=O)OC(C)(C)C)C(=O)N4C3)c2cc1F` [Compound 5393, tert-butyl ((2R,6S,7R,9R,13aS,14aR,16aS,Z)-2-((6-ethoxy-7-fluoroisoquinolin-1-yl)oxy)-7,9-dimethyl-14a-(((1-methylcyclopropyl)sulfonyl)carbamoyl)-5,16-dioxo-1,2,3,5,6,7,8,9,10,11,13a,14,14a,15,16,16a-hexadecahydrocyclopropa[e]pyrrolo[1,2-a][1,4]diazacyclopentadecin-6-yl)carbamate]: the EC50 is 0.92 nM in assay [1] (Hepatitis C virus, Huh-7, 72 h, read-out: LE_1a (EC50)); 0.51 to 1 nM in assay [1] (setting [3]); 0.55 nM in assay [2] (Hepatitis C virus, Huh-7, 72 h, read-out: LE_1b (EC50)); 0.51 to 1 nM in assay [2] (setting [4]).
`CCOc1cc2ccnc(O[C@@H]3C[C@H]4C(=O)N[C@]5(C(=O)NS(=O)(=O)C6(C)CC6)C[C@H]5/C=C\CC[C@@H](C)C[C@@H](C)[C@H](NC(=O)OC(C)(C)C(F)(F)F)C(=O)N4C3)c2cc1F` [Compound 5395, 1,1,1-trifluoro-2-methylpropan-2-yl((2R,6S,7R,9R,13aS,14aR,16aS,Z)-2-((6-ethoxy-7-fluoroisoquinolin-1-yl)oxy)-7,9-dimethyl-14a-(((1-methylcyclopropyl)sulfonyl)carbamoyl)-5,16-dioxo-1,2,3,5,6,7,8,9,10,11,13a,14,14a,15,16,16a-hexadecahydrocyclopropa[e]pyrrolo[1,2-a][1,4]diazacyclopentadecin-6-yl)carbamate]: the EC50 in assay [1] (setting [3]) lay in the range of 1.01 to 5 nM; in assay [2] (setting [4]), 0.51 to 1 nM.
In the case of `CCOc1cc2ccnc(O[C@@H]3C[C@H]4C(=O)N[C@]5(C(=O)NS(=O)(=O)C6(C)CC6)C[C@H]5/C=C\CC[C@@H](C)C[C@@H](C)[C@H](NC(=O)OC(C)(C)C(C)(F)F)C(=O)N4C3)c2cc1F` [Compound 5397, 3,3-difluoro-2-methylbutan-2-yl((2R,6S,7R,9R,13aS,14aR,16aS,Z)-2-((6-ethoxy-7-fluoroisoquinolin-1-yl)oxy)-7,9-dimethyl-14a-(((1-methylcyclopropyl)sulfonyl)carbamoyl)-5,16-dioxo-1,2,3,5,6,7,8,9,10,11,13a,14,14a,15,16,16a-hexadecahydrocyclopropa[e]pyrrolo[1,2-a][1,4]diazacyclopentadecin-6-yl)carbamate], the EC50 lay within 1.01 to 5 nM in assay [1] (setting [3]) and 0.51 to 1 nM in assay [2] (setting [4]).
On to `CCOc1cc2ccnc(O[C@@H]3C[C@H]4C(=O)N[C@]5(C(=O)NS(=O)(=O)C6CC6)C[C@H]5/C=C\CC[C@@H](C)C[C@@H](C)[C@H](NC(=O)OC(C)(C)C)C(=O)N4C3)c2cc1F` [Compound 5399, tert-butyl ((2R,6S,7R,9R,13aS,14aR,16aS,Z)-14a-((cyclopropylsulfonyl)carbamoyl)-2-((6-ethoxy-7-fluoroisoquinolin-1-yl)oxy)-7,9-dimethyl-5,16-dioxo-1,2,3,5,6,7,8,9,10,11,13a,14,14a,15,16,16a-hexadecahydrocyclopropa[e]pyrrolo[1,2-a][1,4]diazacyclopentadecin-6-yl)carbamate], for which the figures for the EC50 in assay [1] (setting [3]) and in assay [2] (setting [4]) were 0.51 to 1 nM and 0.1 to 0.5 nM, respectively.

These data come from patent US9499550B2 (BRISTOL-MYERS SQUIBB COMPANY, priority 2012, dated 2016).
